Laboratory results from the NIST ThermoML archive (doi:10.1021/je301301j).

Assay: xn = mol fraction of the nth substance listed
Settings: Liquid; for mass density: Vibrating tube method; for viscosity: Concentric cylinders viscometry

C=CCCCC [hex-1-ene] + CCCCO
Settings | mass density, 273.15 K [kg/m3] | mass density, 293.15 K [kg/m3] | mass density, 313.15 K [kg/m3] | mass density, 333.15 K [kg/m3] | viscosity, 293.15 K [mPa·s] | viscosity, 303.15 K [mPa·s] | viscosity, 313.15 K [mPa·s]
100 kPa, x1 = 0.1001 | 808.1 | 792.4 | 776.5 | 759.7 | – | – | –
100 kPa, x1 = 0.3999 | 764.1 | 747 | 729.5 | 711.1 | – | – | –
100 kPa, x1 = 0.5018 | 751.4 | 734 | 716 | 697.2 | – | – | –
100 kPa, x1 = 0.5997 | 739 | 721.2 | 702.9 | 683.7 | – | – | –
100 kPa, x1 = 0.9 | 700.4 | 681.8 | 662.7 | 642.8 | – | – | –
100 kPa, x1 = 1 | 691.5 | 672.8 | 653.8 | 634 | – | – | –
100 kPa, x2 = 0 | – | – | – | – | 0.28 | 0.257 | 0.236
100 kPa, x2 = 0.1001 | – | – | – | – | 0.316 | 0.283 | 0.255
100 kPa, x2 = 0.2 | – | – | – | – | 0.355 | 0.316 | 0.285
100 kPa, x2 = 0.3002 | – | – | – | – | 0.422 | 0.369 | 0.322
100 kPa, x2 = 0.3999 | – | – | – | – | 0.522 | 0.448 | 0.386
100 kPa, x2 = 0.5018 | – | – | – | – | 0.669 | 0.565 | 0.475
100 kPa, x2 = 0.5997 | – | – | – | – | 0.86 | 0.703 | 0.595
100 kPa, x2 = 0.7002 | – | – | – | – | 1.159 | 0.938 | 0.763
100 kPa, x2 = 0.7999 | – | – | – | – | 1.558 | 1.24 | 0.997
100 kPa, x2 = 0.9 | – | – | – | – | 2.125 | 1.667 | 1.327
1000 kPa, x1 = 0.1001 | 808.5 | 793.1 | 777.2 | 760.6 | – | – | –
1000 kPa, x1 = 0.3999 | 764.6 | 747.7 | 730.4 | 712.2 | – | – | –
1000 kPa, x1 = 0.5018 | 751.9 | 734.8 | 716.9 | 698.3 | – | – | –
1000 kPa, x1 = 0.5997 | 739.5 | 722 | 703.9 | 684.9 | – | – | –
1000 kPa, x1 = 0.9 | 701 | 682.7 | 663.9 | 644.1 | – | – | –
1000 kPa, x1 = 1 | 692.1 | 673.8 | 654.9 | 635.4 | – | – | –
2000 kPa, x1 = 0.1001 | 809.3 | 793.8 | 778.1 | 761.6 | – | – | –
2000 kPa, x1 = 0.3999 | 765.4 | 748.6 | 731.4 | 713.4 | – | – | –
2000 kPa, x1 = 0.5018 | 752.7 | 735.7 | 718 | 699.6 | – | – | –
2000 kPa, x1 = 0.5997 | 740.4 | 723 | 705 | 686.3 | – | – | –
2000 kPa, x1 = 0.9 | 701.9 | 683.8 | 665.1 | 645.6 | – | – | –
2000 kPa, x1 = 1 | 693 | 674.9 | 656.2 | 636.9 | – | – | –
5000 kPa, x1 = 0.1001 | 811.3 | 796.2 | 780.6 | 764.5 | – | – | –
5000 kPa, x1 = 0.3999 | 767.7 | 751.2 | 734.3 | 716.8 | – | – | –
5000 kPa, x1 = 0.5018 | 755.1 | 738.4 | 721.1 | 703.1 | – | – | –
5000 kPa, x1 = 0.5997 | 742.8 | 725.8 | 708.2 | 690 | – | – | –
5000 kPa, x1 = 0.9 | 704.6 | 686.9 | 668.7 | 649.9 | – | – | –
5000 kPa, x1 = 1 | 695.8 | 678 | 659.9 | 641.3 | – | – | –
10000 kPa, x1 = 0.1001 | 814.6 | 799.7 | 784.6 | 768.9 | – | – | –
10000 kPa, x1 = 0.3999 | 771.4 | 755.3 | 739 | 722 | – | – | –
10000 kPa, x1 = 0.5018 | 758.9 | 742.7 | 725.9 | 708.6 | – | – | –
10000 kPa, x1 = 0.5997 | 746.7 | 730.2 | 713.2 | 695.7 | – | – | –
10000 kPa, x1 = 0.9 | 708.8 | 691.7 | 674.2 | 656.3 | – | – | –
10000 kPa, x1 = 1 | 700 | 682.9 | 665.5 | 647.8 | – | – | –
15000 kPa, x1 = 0.1001 | 817.8 | 803.2 | 788.4 | 773.1 | – | – | –
15000 kPa, x1 = 0.3999 | 774.9 | 759.2 | 743.3 | 727.1 | – | – | –
15000 kPa, x1 = 0.5018 | 762.5 | 746.7 | 730.5 | 713.8 | – | – | –
15000 kPa, x1 = 0.5997 | 750.4 | 734.4 | 718 | 701.1 | – | – | –
15000 kPa, x1 = 0.9 | 712.8 | 696.2 | 679.5 | 662.2 | – | – | –
15000 kPa, x1 = 1 | 704 | 687.5 | 670.8 | 653.9 | – | – | –
20000 kPa, x1 = 0.1001 | 820.8 | 806.5 | 792.1 | 777.2 | – | – | –
20000 kPa, x1 = 0.3999 | 778.2 | 762.9 | 747.5 | 731.6 | – | – | –
20000 kPa, x1 = 0.5018 | 766 | 750.5 | 734.8 | 718.7 | – | – | –
20000 kPa, x1 = 0.5997 | 754 | 738.3 | 722.4 | 706.1 | – | – | –
20000 kPa, x1 = 0.9 | 716.5 | 700.4 | 684.2 | 667.8 | – | – | –
20000 kPa, x1 = 1 | 707.8 | 691.8 | 675.7 | 659.5 | – | – | –
30000 kPa, x1 = 0.1001 | 826.5 | 812.8 | 799 | 784.7 | – | – | –
30000 kPa, x1 = 0.3999 | 784.4 | 769.9 | 755.2 | 740.3 | – | – | –
30000 kPa, x1 = 0.5018 | 772.4 | 757.7 | 742.7 | 728.5 | – | – | –
30000 kPa, x1 = 0.5997 | 760.6 | 745.7 | 730.6 | 715.4 | – | – | –
30000 kPa, x1 = 0.9 | 723.6 | 708.3 | 693.1 | 677.7 | – | – | –
30000 kPa, x1 = 1 | 715 | 699.8 | 684.6 | 669.5 | – | – | –
40000 kPa, x1 = 0.1001 | 831.9 | 818.6 | 805.3 | 791.6 | – | – | –
40000 kPa, x1 = 0.3999 | 790.2 | 776.3 | 762.2 | 748 | – | – | –
40000 kPa, x1 = 0.5018 | 778.4 | 764.2 | 749.9 | 736.5 | – | – | –
40000 kPa, x1 = 0.5997 | 766.8 | 752.4 | 738 | 723.5 | – | – | –
40000 kPa, x1 = 0.9 | 730.1 | 715.5 | 700.9 | 686.5 | – | – | –
40000 kPa, x1 = 1 | 721.6 | 707 | 692.6 | 678.4 | – | – | –
50000 kPa, x1 = 0.1001 | 837 | 824.1 | 811.1 | 798 | – | – | –
50000 kPa, x1 = 0.3999 | 795.7 | 782.2 | 768.7 | 755.2 | – | – | –
50000 kPa, x1 = 0.5018 | 783.9 | 770.2 | 756.5 | 743.8 | – | – | –
50000 kPa, x1 = 0.5997 | 772.3 | 758.6 | 744.7 | 731 | – | – | –
50000 kPa, x1 = 0.9 | 736.1 | 722.1 | 708.2 | 694.4 | – | – | –
50000 kPa, x1 = 1 | 727.6 | 713.7 | 699.9 | 686.3 | – | – | –
60000 kPa, x1 = 1 | 733.2 | 719.9 | 706.9 | 693.7 | – | – | –
70000 kPa, x1 = 1 | 738.7 | 725.8 | 713 | 700.5 | – | – | –
